Patent US8912216B2, “Hetaryl-[1,8]naphthyridine derivatives” (Merck Patent GmbH, priority 2010, dated 2014)

Assays:
[1] = target: T1, GST-ALK5 (Homo sapiens, UniProt P36897); assay: In-vitro (enzyme) kinase assay, 384-well flashplate (Example 36); assay type: biochemical; details: GST-ALK5, GST-SMAD2 substrate, 3 mM ATP, 30° C., 45 min; read-out: TβR activity (Example 36)
T1 sequence (P36897 34-503): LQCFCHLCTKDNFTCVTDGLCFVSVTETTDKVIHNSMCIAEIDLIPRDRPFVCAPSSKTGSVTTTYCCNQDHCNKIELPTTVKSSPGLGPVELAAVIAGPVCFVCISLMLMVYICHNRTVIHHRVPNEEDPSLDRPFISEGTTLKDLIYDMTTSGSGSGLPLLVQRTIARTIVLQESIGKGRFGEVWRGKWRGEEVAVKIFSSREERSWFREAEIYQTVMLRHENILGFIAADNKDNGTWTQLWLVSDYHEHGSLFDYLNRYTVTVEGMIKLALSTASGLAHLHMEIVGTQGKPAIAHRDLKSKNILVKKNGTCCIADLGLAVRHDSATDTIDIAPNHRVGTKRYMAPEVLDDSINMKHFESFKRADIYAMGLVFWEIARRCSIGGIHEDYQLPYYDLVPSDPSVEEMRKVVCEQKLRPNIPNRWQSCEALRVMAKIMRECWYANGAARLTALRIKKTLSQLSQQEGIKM
Method in brief: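 Radiometric flashplate assay: 31.2 nM GST-ALK5 phosphorylating 439 nM GST-SMAD2 with 3 mM ATP plus ³³P-ATP, in HEPES/MgCl2/MnCl2/DTT/BSA buffer pH 7.4, 45 min at 30 °C, 5-10 compound concentrations. EDTA stop, filtration and washing, then radioactivity counted; IC50 derived from the curve.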

[2] = system: TGF-beta-induced phosphorylation of Smad2 and Smad3 in Mv1-Lu cells; assay: Inhibition of Smad2/3 phosphorylation in Mv1Lu cells (Example 35A); assay type: cell-based, mink Mustela vison; details: Neogale vison, Mv1-Lu cells, TGF-beta 1 5 ng/ml, phospho-Smad2/3 ELISA, read-out: TβR activity (Example 35A)
Method in brief: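 Serum-starved (16-20 h) Mv1-Lu mink lung epithelial cells were pre-incubated 1.5 h with compound dilutions (0.2% DMSO), then stimulated 1 h with 5 ng/ml TGF-beta 1. Phospho-Smad2 (Ser465/467)/Smad3 (Ser423/425) in lysates was measured by ELISA. IC50 came from dose-response fits between stimulated and unstimulated controls.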

IC50 [1]	IC50 [2]	SMILES
< 100 nM	100 to 1000 nM	CN1CCC(n2cc(-c3cncc(-c4cc(-c5ccccc5F)nc5ncccc45)n3)cn2)CC1 [compound 85, 2-(2-Fluoro-phenyl)-4-{6-[1-(1-methyl-piperidin-4-yl)-1H-pyrazol-4-yl]-pyrazin-2-yl}-[1,8]naphthyridine]
< 100 nM	100 to 1000 nM	CN1CCN(c2ccc(-c3cncc(-c4cc(-c5ccccc5F)nc5ncccc45)n3)cn2)CC1 [compound 82, 2-(2-Fluoro-phenyl)-4-{6-[6-(4-methyl-piperazin-1-yl)-pyridin-3-yl]-pyrazin-2-yl}-[1,8]naphthyridine]
< 100 nM	< 100 nM	Nc1ncc(-c2cc(-c3cc(F)ccc3F)nc3ncccc23)c2ccncc12 [compound 73, 4-[2-(2,5-Difluoro-phenyl)-[1,8]naphthyridin-4-yl]-[2,7]naphthyridin-1-ylamine]
< 100 nM	< 100 nM	CC(C)N1CCC(c2ccc(-c3cncc(-c4cc(-c5cc(Cl)ccc5F)nc5ncccc45)c3)cc2)CC1 [compound 174, 2-(5-Chloro-2-fluoro-phenyl)-4-{5-[4-(1-isopropyl-piperidin-4-yl)-phenyl]-pyridin-3-yl}-[1,8]naphthyridine]
< 100 nM	< 100 nM	OCCN1CCC(n2cc(-c3cncc(-c4cc(-c5cc(Cl)ccc5F)nc5ncccc45)c3)cn2)CC1 [compound 45, 2-[4-(4-{5-[2-(5-Chloro-2-fluoro-phenyl)-[1,8]naphthyridin-4-yl]-pyridin-3-yl}-pyrazol-1-yl)-piperidin-1-yl]-ethanol]
< 100 nM	< 100 nM	CN(C)CCCn1cc(-c2cncc(-c3cc(-c4cc(Cl)ccc4F)nc4ncccc34)c2)cn1 [compound 97, [3-(4-{5-[2-(5-Chloro-2-fluoro-phenyl)-[1,8]naphthyridin-4-yl]-pyridin-3-yl}-pyrazol-1-yl)-propyl]-dimethyl-amine]
< 100 nM	100 to 1000 nM	Nc1nccc(-c2cncc(-c3cc(-c4cc(Cl)ccc4F)nc4ncccc34)c2)n1 [compound 109, 4-{5-[2-(5-Chloro-2-fluoro-phenyl)-[1,8]naphthyridin-4-yl]-pyridin-3-yl}-pyrimidin-2-ylamine]
1000 to 10000 nM	> 10000 nM	Cc1cccc(-c2cc(-c3cncc4ccccc34)c3cccnc3n2)n1 [compound 3, 4-Isoquinolin-4-yl-2-(6-methyl-pyridin-2-yl)-[1,8]naphthyridine]
< 100 nM	< 100 nM	Fc1ccc(F)c(-c2cc(-c3cncc(-c4cnn(CCN5CCCC5)c4)c3)c3cccnc3n2)c1 [compound 26, 2-(2,5-Difluoro-phenyl)-4-{5-[1-(2-pyrrolidin-1-yl-ethyl)-1H-pyrazol-4-yl]-pyridin-3-yl}-[1,8]naphthyridine]
100 to 1000 nM	1000 to 10000 nM	CC(=O)Nc1ncc(-c2cc(-c3ccccc3F)nc3ncccc23)c2ccncc12 [compound 74, N-{4-[2-(2-fluoro-phenyl)-[1,8]naphthyridin-4-yl]-[2,7]naphthyridin-1-yl}-acetamide]
< 100 nM	100 to 1000 nM	Fc1ccc(Cl)cc1-c1cc(-c2cncc(-c3cccc(C4CCNCC4)c3)c2)c2cccnc2n1 [compound 159, 2-(5-Chloro-2-fluoro-phenyl)-4-[5-(3-piperidin-4-yl-phenyl)-pyridin-3-yl]-[1,8]naphthyridine]
< 100 nM	< 100 nM	CN1CCC(n2cc(-c3cncc(-c4cc(-c5ccccc5F)nc5ncccc45)c3)cn2)CC1 [compound 30, 2-(2-fluoro-phenyl)-4-{5-[1-(1-methyl-piperidin-4-yl)-1H-pyrazol-4-yl]-pyridin-3-yl}-[1,8]naphthyridine]
< 100 nM	< 100 nM	Fc1ccc(F)c(-c2cc(-c3cncc(-c4ccc(OC5CCNCC5)cc4)c3)c3cccnc3n2)c1 [compound 120, 2-(2,5-DifIuoro-phenyl)-4-{5-[4-(piperidin-4-yloxy)-phenyl]-pyridin-3-yl}-[1,8]naphthyridine]
< 100 nM	< 100 nM	CN1CCC(n2cc(-c3cncc(-c4cc(-c5ccccc5F)nc5ncccc45)c3)nn2)CC1 [compound 55, 2-(2-Fluoro-phenyl)-4-{5-[1-(1-methyl-piperidin-4-yl)-1H-[1,2,3]triazol-4-yl]-pyridin-3-yl}-[1,8]naphthyridine]
100 to 1000 nM	1000 to 10000 nM	Fc1ccccc1-c1cc(-c2cncc(-n3cccn3)c2)c2cccnc2n1 [compound 79, 2-(2-Fluoro-phenyl)-4-(5-pyrazol-1-yl-pyridin-3-yl)-[1,8]naphthyridine]
< 100 nM	< 100 nM	Cc1cccc(-c2cc(-c3cncc(-c4cnn(C5CCN(C)CC5)c4)c3)c3cccnc3n2)n1 [compound 49, 4-{5-[1-(1-Methyl-piperidin-4-yl)-1H-pyrazol-4-yl]-pyridin-3-yl}-2-(6-methyl-pyridin-2-yl)-[1,8]naphthyridine]
100 to 1000 nM	1000 to 10000 nM	Cn1cc(-c2cncc(-c3cc(-c4cccc(C(F)(F)F)c4)nc4ncccc34)c2)cn1 [compound 14, 4-[5-(1-Methyl-1H-pyrazol-4-yl)-pyridin-3-yl]-2-(3-trifluoromethyl-phenyl)-[1,8]naphthyridine]
100 to 1000 nM	1000 to 10000 nM	CN1CCN(c2ccc(-c3cncc(-c4cc(-c5cc(F)ccc5F)nc5ncccc45)c3)nn2)CC1 [compound 140, 2-(2,5-Difluoro-phenyl)-4-{5-[6-(4-methyl-piperazin-1-yl)-pyridazin-3-yl]-pyridin-3-yl}-[1,8]naphthyridine]
< 100 nM	100 to 1000 nM	Fc1ccc(Cl)cc1-c1cc(-c2cncc(-c3ccccn3)c2)c2cccnc2n1 [compound 103, 4-[2,3′]Bipyridinyl-5′-yl-2-(5-chloro-2-fluoro-phenyl)-[1,8]naphthyridine]
1000 to 10000 nM	> 10000 nM	Fc1ccc(Cl)cc1-c1cc(-c2cnc3ccccc3c2)c2cccnc2n1 [compound 100, 2-(5-Chloro-2-fluoro-phenyl)-4-quinolin-3-yl-[1,8]naphthyridine]
100 to 1000 nM	1000 to 10000 nM	Cn1cc(-c2cncc(-c3cc(-c4cc(F)c(F)cc4F)nc4ncccc34)c2)cn1 [compound 17, 4-[5-(1-Methyl-1H-pyrazol-4-yl)-pyridin-3-yl]-2-(2,4,5-trifluoro-phenyl)-[1,8]naphthyridine]
< 100 nM	< 100 nM	CCN1CCC(n2cc(-c3cncc(-c4cc(-c5cc(Cl)ccc5F)nc5ncccc45)c3)cn2)CC1 [compound 46, 2-(5-Chloro-2-fluoro-phenyl)-4-{5-[1-(1-ethyl-piperidin-4-yl)-1H-pyrazol-4-yl]-pyridin-3-yl}-[1,8]naphthyridine]
100 to 1000 nM	1000 to 10000 nM	Cn1cc(-c2cncc(-c3cc(-c4cccc(Cl)c4)nc4ncccc34)c2)cn1 [compound 9, 2-(3-Chloro-phenyl)-4-[5-(1-methyl-1H-pyrazol-4-yl)-pyridin-3-yl]-[1,8]naphthyridine]
< 100 nM	< 100 nM	CN1CCC(n2cc(-c3cncc(-c4cc(-c5ccccc5F)nc5ncccc45)c3)cn2)C1 (stereo not drawn) [compound 59, 2-(2-Fluoro-phenyl)-4-{5-[1-(1-methyl-pyrrolidin-3-yl)-1H-pyrazol-4-yl]-pyridin-3-yl}-[1,8]naphthyridine]
